Experimental findings from PMC6803848, “Exploring New Structural Features of the 18β-Glycyrrhetinic Acid Scaffold for the Inhibition of Anaplastic Lymphoma Kinase” (Molecules, 2019) are described below.

Values after ≈ are worked out from the molar mass of the structure shown.

The subject of one data set is PC-3. Put plainly: MTT antiproliferative assay, PC-3 cells. To be noted: Homo sapiens; PC-3, MTT. Type of data set: cell-based. On the procedure: (§1) All the cells were seeded in 96-well plates and incubated with 5% CO2 at 37 °C for 24 h. Next, the compounds and the reference were dissolved into the culture medium. The final concentration of DMSO in the medium was less than 0.5%. After the cells were treated with compounds for 48 h, the supernatant was removed and 5 mg/mL of a fresh prepared solution of MTT was added to each well and incubated with the cells at 37 °C for another 4 h. The medium was removed, and 100 μL of testing solution was added to each well. After an overnight incubation with 5% CO2 at 37 °C, the absorbance was measured at 490/630 nm by the microplate reader. The IC50 was calculated using GraphPad Prism version 6.0 software (San Diego, CA, USA) from the non-linear curve.
A general note: Tetrazolium assays rely on reduction of a dye to a coloured formazan, in cell work by metabolically active cells.

Another data set relates to Karpas299. Put plainly: MTT antiproliferative assay, Karpas299 cells. The data set is classed as cell-based. To be noted: Homo sapiens, KARPAS-299. On the procedure: as §1
For data set [1], the system named is HepG2. Put plainly: MTT antiproliferative assay, HepG2 cells. Type of data set: cell-based. As to conditions: Homo sapiens. As to the method:
as §1

The next data set concerns the target ALK (Homo sapiens, UniProt Q9UM73). In words: Kinase activity determination (ELISA), ALK. The data set is classed as biochemical. To be noted: purified ALK, 10 μmol/L ATP solution, read-out: Inhibitory effect on ALK activity, IC50. As to the method:
The effects of the compounds on the activities of the tyrosine kinase was determined using enzyme-linked immunosorbent assay (ELISA). Briefly, 20 μg/mL substrate [poly (Glu,Tyr)4:1], 50 μL aliquot of 10 μmol/L ATP solution diluted in kinase buffer (50 mmol/L HEPES pH 7.5, 50 mmol/L MgCl2, 0.5 mmol/L MnCl2, 0.2 mmol/L Na3VO4, and 1 mmol/L DTT) was added to each well; 1 μL of various concentrations of target compound and positive control drug diluted in 1% DMSO (v/v) were then added to each well. 1% DMSO was used as the negative control. After 5–10 min preincubation, the kinase reaction was initiated by the addition of purified ALK proteins diluted in 49 μL of kinase buffer. After 30 min preincubation, the anti-phosphotyrosine monoclonalantibody (100 μL; 1:500, diluted in 5 mg/mL BSA T-PBS) was then added. […] A 100 μL aliquot of a solution containing 0.03% H2O2 and 2 mg/mL o-phenylenediamine in 0.1 mol/L citrate buffer was added. The reaction was terminated by the addition of 50 μL of 2 mol/L H2SO4 as the color changed, and the plate was analyzed using a multi-well spectrophotometer at 490 nm.
A general note: In an ELISA, binding on a coated surface is turned into a signal by an enzyme label.

Data set [2] concerns HepG2. In words: MTT antiproliferative assay, HepG2 cells. Type of data set: cell-based, human. As to conditions: five concentrations, 24, 48 or 72 h, Figure 7.
In the next data set the test system is HT29. Put plainly: MTT antiproliferative assay, HT29 cells. The data set is classed as cell-based. To be noted: Homo sapiens, HT-29; for inhibition at 2 µg/mL: HT29, 2 μg/mL; for inhibition at 2 µg/mL / inhibition at 20 µg/mL: 48 h, MTT, read-out: Antiproliferative activity (growth inhibition, %); for inhibition at 20 µg/mL: HT29, 20 μg/mL; for IC50: HT29, MTT. As to the method: as §1

For the next data set, the system named is MCF-7. Put plainly: MTT antiproliferative assay, MCF-7 cells. As to conditions: Homo sapiens, MCF7; MCF-7, MTT. Type of data set: cell-based. As to the method:
as §1

For a further data set, the system named is LO2 cells. In words: MTT cytotoxicity assay, non-tumorigenic liver LO2 cell. The data set is classed as cell-based. As to conditions: 0.064–40.0 μg/mL, 48 h, Figure 8. As to the method: Given the mentioned results, the most efficient compound 3j was selected for in depth study, and it was evaluated in different concentrations (0.064–40.0 μg/mL) towards HepG2 cell line and non-tumorigenic liver LO2 cell. A 48 h continuous drug exposure protocol was employed by the MTT cytotoxicity assay.
as §1

For a further data set, the system named is A549. Put plainly: MTT antiproliferative assay, A549 cells. To be noted: Homo sapiens; for inhibition at 2 µg/mL: A549, 2 μg/mL; for inhibition at 2 µg/mL / inhibition at 20 µg/mL: 48 h, MTT, read-out: Antiproliferative activity (growth inhibition, %); for inhibition at 20 µg/mL: A549, 20 μg/mL; for IC50: A549, MTT. Type of data set: cell-based. On the procedure: as §1

ALK, sequence (Q9UM73 19-1620): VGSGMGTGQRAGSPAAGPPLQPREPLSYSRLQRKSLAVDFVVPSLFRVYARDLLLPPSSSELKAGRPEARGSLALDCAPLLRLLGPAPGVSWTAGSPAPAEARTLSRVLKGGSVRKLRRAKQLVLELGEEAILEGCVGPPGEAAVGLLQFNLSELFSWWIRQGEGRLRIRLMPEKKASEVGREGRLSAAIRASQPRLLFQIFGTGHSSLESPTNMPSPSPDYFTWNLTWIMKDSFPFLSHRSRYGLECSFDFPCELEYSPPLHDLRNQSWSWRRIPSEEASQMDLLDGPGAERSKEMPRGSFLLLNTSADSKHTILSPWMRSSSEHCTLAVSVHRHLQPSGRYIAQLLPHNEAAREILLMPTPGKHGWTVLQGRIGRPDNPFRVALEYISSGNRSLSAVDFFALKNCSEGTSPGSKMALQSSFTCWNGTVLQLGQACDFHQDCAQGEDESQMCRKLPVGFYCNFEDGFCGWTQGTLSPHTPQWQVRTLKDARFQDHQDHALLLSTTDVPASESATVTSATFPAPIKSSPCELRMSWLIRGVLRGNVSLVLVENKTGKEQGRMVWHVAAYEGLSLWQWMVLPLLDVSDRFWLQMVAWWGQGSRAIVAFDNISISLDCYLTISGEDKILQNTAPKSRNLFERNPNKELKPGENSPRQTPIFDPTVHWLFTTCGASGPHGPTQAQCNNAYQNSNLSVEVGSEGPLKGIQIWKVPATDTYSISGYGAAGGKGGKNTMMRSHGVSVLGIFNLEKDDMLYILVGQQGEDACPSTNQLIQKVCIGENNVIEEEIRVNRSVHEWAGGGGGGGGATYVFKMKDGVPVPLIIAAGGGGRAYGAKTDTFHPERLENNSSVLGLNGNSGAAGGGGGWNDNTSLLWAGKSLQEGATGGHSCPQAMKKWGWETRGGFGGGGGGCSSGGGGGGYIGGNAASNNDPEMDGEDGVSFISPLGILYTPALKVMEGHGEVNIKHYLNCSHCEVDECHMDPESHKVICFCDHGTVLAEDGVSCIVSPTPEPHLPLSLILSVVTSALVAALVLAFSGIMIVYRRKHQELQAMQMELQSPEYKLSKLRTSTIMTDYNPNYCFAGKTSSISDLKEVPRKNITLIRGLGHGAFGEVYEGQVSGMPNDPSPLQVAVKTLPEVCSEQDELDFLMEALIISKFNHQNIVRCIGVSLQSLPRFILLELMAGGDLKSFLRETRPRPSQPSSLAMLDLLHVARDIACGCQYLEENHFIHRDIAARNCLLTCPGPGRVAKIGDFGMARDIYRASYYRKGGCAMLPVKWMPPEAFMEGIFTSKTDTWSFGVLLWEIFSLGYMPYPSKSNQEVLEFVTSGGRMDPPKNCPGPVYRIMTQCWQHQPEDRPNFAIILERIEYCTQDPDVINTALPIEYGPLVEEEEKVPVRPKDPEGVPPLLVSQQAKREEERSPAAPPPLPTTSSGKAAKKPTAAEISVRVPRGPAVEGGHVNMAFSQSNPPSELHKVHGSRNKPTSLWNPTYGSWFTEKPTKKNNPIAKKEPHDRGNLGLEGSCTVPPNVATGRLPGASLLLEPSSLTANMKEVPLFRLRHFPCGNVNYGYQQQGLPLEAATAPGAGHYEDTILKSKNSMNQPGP

A word on the IC50: it is the point on the concentration scale where inhibition reaches its midpoint. A word on the melting point: it is the temperature of the solid-liquid transition. Broadly, the inhibition is how much of the control response was suppressed. Turning to `CC1(C)C2CC[C@]3(C)[C@H](C(=O)C=C4[C@@H]5C[C@@](C)(C(=O)O)CC[C@]5(C)CC[C@]43C)[C@@]2(C)CC[C@@H]1OC(=O)Nc1cccc(C(F)(F)F)c1` (stereo partly drawn) [3j, 3β-(((3-(trifluoromethyl)phenyl)carbamoyl)oxy)-11-oxo-olean-12-en-30-oic acid], the melting point fell in the range of 239.1 to 240.7 °C. In addition, the IC50 in the data set with PC-3 was determined as 5.96 µg/mL (≈ 9.06 µM). Further, it took 5.59 µg/mL (≈ 8.5 µM) to reach half-maximal inhibition with Karpas299 (IC50). This compound gave an IC50 in the data set with HepG2 [1] of 5.55 µg/mL (≈ 8.44 µM). Further, the IC50 on ALK came out at 121 nM. Also, the “Inhibition of proliferation of HepG2 cell, concentration and time dependence” value with HepG2 [2] is given as “inhibited the proliferation of HepG2 cell in a significant concentration manner, whereas it did not occur in a time-dependent manner”. For the same compound, in the data set with HT29, the inhibition at 2 µg/mL was 24.8%, the inhibition at 20 µg/mL was 99.6% and the IC50 was 3.19 µg/mL (≈ 4.85 µM). Also, the IC50 with MCF-7 came out at 5.26 µg/mL (≈ 8 µM). Moreover, the “Toxic action towards LO2 cells” value with LO2 cells is on record as “did not exhibit significant toxic action”. In the data set on A549, the inhibition at 2 µg/mL came out at 17.7%, the inhibition at 20 µg/mL stood at 88.3% and the IC50 is 2.81 µg/mL (≈ 4.27 µM).

Compound `CC1(C)C2CC[C@]3(C)[C@H](C(=O)C=C4[C@@H]5C[C@@](C)(C(=O)O)CC[C@]5(C)CC[C@]43C)[C@@]2(C)CC[C@@H]1OC(=O)Nc1cc(C(F)(F)F)cc(C(F)(F)F)c1` (stereo partly drawn) [3k, 3β-(((3,5-bis (trifluoromethyl)phenyl)carbamoyl)oxy)-11-oxo-olean-12-en-30-oic acid] registered a melting point of 248.8 to 251.7 °C. The same compound registered an IC50 in the data set on PC-3 of 10.3 µg/mL (≈ 14.2 µM). The same compound gave an IC50 with Karpas299 of 9.16 µg/mL (≈ 12.6 µM). The IC50 in the data set with HepG2 [1] was 11.2 µg/mL (≈ 15.5 µM). Further, the IC50 at ALK was determined as 278 nM. Moreover, in the data set with HT29, the inhibition at 2 µg/mL is 10.8%, the inhibition at 20 µg/mL amounted to 94.8% and the IC50 was 6.47 µg/mL (≈ 8.91 µM). The compound also showed an IC50 in the data set with MCF-7 of 7 µg/mL (≈ 9.64 µM). In addition, in the data set on A549, the inhibition at 2 µg/mL worked out at 18.8%, the inhibition at 20 µg/mL was 88.8% and inhibition was half-maximal at 2.93 µg/mL (≈ 4.04 µM) (IC50).

Compound `CC1(C)C2CC[C@]3(C)[C@H](C(=O)C=C4[C@@H]5C[C@@](C)(C(=O)O)CC[C@]5(C)CC[C@]43C)[C@@]2(C)CC[C@@H]1OC(=O)Nc1ccc(OC(F)(F)F)cc1` (stereo partly drawn) [3n, 3β-(((4-(trifluoromethoxy)phenyl)carbamoyl)oxy)-11-oxo-olean-12-en-30-oic acid] showed a melting point of 256.4 to 258.4 °C. The half-inhibitory concentration (IC50) in the data set with PC-3 amounted to 13.3 µg/mL (≈ 19.8 µM). In the data set on Karpas299, half-maximal inhibition (IC50) required 26 µg/mL (≈ 38.5 µM). For the same compound, the IC50 in the data set with HepG2 [1] amounted to 12.6 µg/mL (≈ 18.6 µM). Further, in the data set on HT29, the inhibition at 2 µg/mL came to 19%, the inhibition at 20 µg/mL stood at 97.7% and the half-inhibitory concentration (IC50) worked out at 11.3 µg/mL (≈ 16.8 µM). The compound also showed an IC50 with MCF-7 of 9.3 µg/mL (≈ 13.8 µM). Besides, in the data set with A549, the inhibition at 2 µg/mL amounted to 20.1%; the inhibition at 20 µg/mL was 97.1%; the midpoint of inhibition, the IC50, lay at 7.42 µg/mL (≈ 11 µM).

`CC1(C)C2CC[C@]3(C)[C@H](C(=O)C=C4[C@@H]5C[C@@](C)(C(=O)O)CC[C@]5(C)CC[C@]43C)[C@@]2(C)CC[C@@H]1OC(=O)Nc1ccc(Cl)c(C(F)(F)F)c1` (stereo partly drawn) [3b, 3β-(((4-chloro-3-(trifluoromethyl)phenyl)carbamoyl)oxy)-11-oxo-olean-12-en-30-oic acid] displayed a melting point of 247.8 to 248.5 °C. This compound came in with an IC50 in the data set on PC-3 of 12.1 µg/mL (≈ 17.4 µM). In addition, the IC50 in the data set with Karpas299 was 18.6 µg/mL (≈ 26.8 µM). Half-maximal inhibition in the data set on HepG2 [1] (IC50) required 9.25 µg/mL (≈ 13.4 µM). Further, in the data set on HT29, the inhibition at 2 µg/mL is 14.1%, the inhibition at 20 µg/mL was found to be 87.7% and inhibition was half-maximal at 12 µg/mL (≈ 17.3 µM) (IC50). This compound also came in with an IC50 in the data set with MCF-7 of 8.92 µg/mL (≈ 12.9 µM). Moreover, in the data set with A549, the inhibition at 2 µg/mL is 14%, the inhibition at 20 µg/mL turned out to be 77.3% and inhibition was half-maximal at 11.9 µg/mL (≈ 17.2 µM) (IC50).

`Cc1cc(C)cc(NC(=O)O[C@H]2CC[C@@]3(C)C(CC[C@]4(C)[C@@H]3C(=O)C=C3[C@@H]5C[C@@](C)(C(=O)O)CC[C@]5(C)CC[C@]34C)C2(C)C)c1` (stereo partly drawn) [3o, 3β-(((3,5-dimethylphenyl)carbamoyl)oxy)-11-oxo-olean-12-en-30-oic acid] had a melting point of 279.8 to 280.6 °C. The compound further returned an IC50 in the data set with PC-3 of 10.7 µg/mL (≈ 17.3 µM). The IC50 with Karpas299 turned out to be 11.4 µg/mL (≈ 18.5 µM). The compound further came in with an IC50 with HepG2 [1] of 4.75 µg/mL (≈ 7.69 µM). Moreover, in the data set on HT29, the inhibition at 2 µg/mL is 55.8%, the inhibition at 20 µg/mL stood at 98.2% and half-maximal inhibition (IC50) was put at 7.3 µg/mL (≈ 11.8 µM). In addition, the IC50 in the data set on MCF-7 was determined as 7.86 µg/mL (≈ 12.7 µM). For the same compound, in the data set on A549, the inhibition at 2 µg/mL was determined as 24.4%, the inhibition at 20 µg/mL amounted to 86.3% and inhibition was half-maximal at 3.24 µg/mL (≈ 5.24 µM) (IC50).
